Entries after “also recorded” stand apart in the source; their conditions may differ.
Assays:
[1] = molecular target: T1, GHSR1a (Homo sapiens, UniProt Q92847); assay: Calcium FLIPR assay, GHSR-1a agonism; assay type: cell-based; set-up: Emax: unit not given here; conditions: HEK293/GHSR1a cells
T1 construct: expressed in transfected cells; host or cells: HEK293
How it was run: (§1)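 Antagonist potency reflects lowering of the 10 nM ghrelin calcium signal in HEK293/GHSR1a cells, with compound and ghrelin given at t=20 sec. Agonism was scored from the 2-minute fluorescence response to compound alone.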

[2] = molecular target: T1, GHSR1a; assay: Calcium FLIPR assay, GHSR-1a antagonism (reduction of ghrelin response); assay type: cell-based; conditions: HEK293/GHSR1a cells, ghrelin 10 nM
How it was run: as §1

[3] = system: rat; assay: Food intake in rat (PO, with or without ANA); assay type: in vivo; conditions: PO + ANA
[4] = Metabolic Stability (M = Mouse); assay type: in vitro ADME
[5] = system: C57BL/6J mice; assay: Food intake test in mouse (GHSR1a antagonists); assay type: in vivo
How it was run: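 Male C57BL/6J mice (18-22 g) were fasted overnight (16 h before dosing), then randomized by body weight to vehicle or test agent (n=6 each). Cumulative food intake was measured at 1, 2, 4, 8 and 24 hrs post-dose as premeasured food minus uneaten food.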

[6] = Metabolic Stability (H = Human); assay type: in vitro ADME
[7] = system: female Sprague-Dawley rats; assay: Binge eating model in non-estrous female rats (food restriction + stress, HPF intake); assay type: in vivo, rat; conditions: for HPF intake (binge eating) in R+S rats: 60 mg/kg by gavage 1 h before access to HPF
Method: In this Example, the therapeutic potential of compounds were tested for their ability to inhibit binge eating. The animal model used was developed to explore the combination of food restriction and stress. […] Considering the reliability and the robustness of this model, it was adopted to test the inventive compounds.
A total of N=117, 52-day-old female Sprague-Dawley rats (175-200 g) were used. Rats were acclimated in individual cages with metallic walls; the floor and the front wall made of metallic grid. The dimensions of the cage floor being 30 cm×30 cm; the cage is 30 cm high. A front door (30 cm×20 cm) made of metallic grid was positioned in the anterior wall of the cage to gain access to the inside of the cage; the remaining part of the front wall was equipped with a drinking burette.
Rats were kept in a room at constant temperature (20-22° C.) and humidity (45-55%) under a 12-h light/dark cycle (lights on at 08:00 am) with ad lib chow and water. All procedures were conducted in adherence to the European Community Directive for Care and Use of Laboratory Animals.
Rats were offered food pellets, 4RF18, Mucedola, Settimo Milanese, Italy (2.6 kcal/g). The Highly Palatable Food (HPF) was prepared by mixing:
Rats were exposed to 3 consecutive 8-day cycles followed by the final test on day 25:
a) the control group (NR+NS) had chow ad libitum for 4 days, on days 5-6 it received chow+HPF for 2 h; on days 7-8 it had chow ad libitum; on day 25 it was not exposed to stress;
b) the second group (R+S) had chow restricted to 66% of the normal intake for 4 days, was offered chow and HPF (2 h) on days 5-6 and only chow on days 7-8; on day 25 it […].
Body weights and food intake were recorded daily. Food intake is expressed as mean kilocalories per kilogram ingested±SEM.
Therefore, immediately after the test on day 25, vaginal smears were collected and analyzed under microscope to assess the ovarian phase, and data from rats in the estrous phase were not included in the statistical analysis. Vaginal smears were analyzed by an experienced experimenter blind to treatment conditions.
For 15 min, the container (China coffee cup) containing HPF is placed outside the cage; the container handle is hooked to the top wire wall of the cage in the hollow part where food pellets are usually offered. In these conditions, the animal is able to see the cup in which it received HPF on days 5, 6, 13, and 14 of the first two cycles, is able to see in part the HPF itself, and is able to smell its odour. In this 15-min period, the rat engages in repeated movements of the forepaws, head, and trunk aimed at obtaining the HPF, but it is not able to reach it. Rats undergo the stressful procedure between 10.00 and 12.00 am. After 15 min, the cup is placed inside the cage of the rats in the stress group (R+S), so that the HPF became accessible to the rat.
100 mg of each compound (H0816, H0860, H0847 and H0900) was accurately weighed and suspended in 13.33 ml of 0.5% carboxymethyl cellulose sodium salt (CMC, Sigma-Aldrich Cat. C4888, lot 120M0216V) solution. The lower dose solution was prepared by dilution of 30 mg/ml suspension with 0.5% CMC solution. Suspensions were prepared freshly on test day. Vehicle was composed by a solution of 0.5% carboxymethyl cellulose sodium salt and was prepared by dissolving 1 g of CMC in 200 ml of distilled water. 180 mg of Topiramate was accurately weighed and suspended in 12 ml of 0.5% CMC solution. Compounds (vehicle and active principles) were administered by gavage in a volume of 4 ml/kg of body weight one hour before access to HPF.
All data are expressed as the mean±s.e.m. and each value reflects the mean number of animals per group as described in the legends. For data evaluation, the analysis of variance (ANOVA) was used followed by post-hoc (Bonferroni's) test when appropriate. Statistical significance was set at P<0.05. The Software used for the Graphs was Origin 7.0. […]

[8] = Metabolic Stability (D); assay type: in vitro ADME; conditions: D (not defined)
[9] = Metabolic Stability (R); assay type: in vitro ADME; conditions: R (not defined)
[10] = first test, acute administration (compounds 3 and 30 mg/kg, Topiramate 60 mg/kg)
[11] = second test, H0816 3, 10 and 30 mg/kg, Topiramate 60 mg/kg

T1 sequence (Q92847 whole entry): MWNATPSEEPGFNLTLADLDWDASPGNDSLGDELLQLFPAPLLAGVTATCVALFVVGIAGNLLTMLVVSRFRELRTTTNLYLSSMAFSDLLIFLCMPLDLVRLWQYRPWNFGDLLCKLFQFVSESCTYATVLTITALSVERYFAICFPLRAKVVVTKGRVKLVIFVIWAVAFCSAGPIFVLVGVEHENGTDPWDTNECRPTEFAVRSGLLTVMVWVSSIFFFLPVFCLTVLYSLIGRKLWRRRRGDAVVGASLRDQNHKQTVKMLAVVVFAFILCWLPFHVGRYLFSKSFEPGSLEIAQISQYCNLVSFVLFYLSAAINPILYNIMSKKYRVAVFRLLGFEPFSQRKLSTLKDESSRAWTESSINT

Compound | EC50 [1] [nM] | IC50 [2] [nM] | Metabolic Stability M [4] | Mouse Food Intake, result in words ([5]; PO, dose not given) | Metabolic Stability H [6] | Metabolic Stability D [8] | Metabolic Stability R [9] | also measured
CC(NC(=O)N(C)C1CCN(C)CC1)c1ccc(-c2cncc(F)n2)c(Cl)c1Cl (centres unmarked) [Compound H0795, 3-(1-(2,3-dichloro-4-(6-fluoropyrazin-2-yl)phenyl)ethyl)-1-methyl-1-(1-methylpiperidin-4-yl)urea] | > 30000 | 4 | High H High M | NSE | High H High M | – | – | Food intake in rat, result in words [3]: no activity; Mouse Food Intake, result in words ([5]; PO + ANA (ANAM), mice, dose not given): inhib
CC1(C)O[C@@H]2[C@@H](CO[C@@]3(COS(N)(=O)=O)OC(C)(C)O[C@@H]23)O1 [Topiramate, reference compound] | – | – | – | – | – | – | – | HPF intake (binge eating) in R+S rats ([7]; first test, vs R+S vehicle, 60 mg/kg): confirmed its inhibitory effect; also recorded: statistically significant at all time points; also recorded: completely abolished BE episode; 2-h chow food intake during binge eating test [7, 10]: did not modify 2-h chow intake; 24-h chow food intake after binge eating test [7, 10]: did not modify 24-h chow intake; HPF intake (binge eating) in R+S rats ([7]; second test): statistically significant at all time points; 2-h chow intake [7, 11]: did not modify; 24-h chow intake [7, 11]: did not modify
C[C@H](NC(=O)N(C)C1CCN(C)C1)c1ccc(-c2cnccn2)c(Cl)c1Cl (mixture of isomers) [Compound H0837, 3-((S)-1-(2,3-dichloro-4-(pyrazin-2-yl)phenyl)ethyl)-1-methyl-1-(1-methylpyrrolidin-3-yl)urea] | > 30000 | 2 | High H High M High R High D | – | High H High M High R High D | High H High M High R High D | High H High M High R High D | Mouse Food Intake % increase ([5]; 2 h, 30 mg/kg PO mice): 180%; Mouse Food Intake, result in words ([5]; PO 10 mg/kg + ANA (ANAM) 30 mg/kg mice): NSE
CC(NC(=O)N(Cc1ccccc1)C1CCN(C)CC1)c1ccc(-c2cnccn2)c(Cl)c1Cl (centres unmarked) [Compound H0825, 1-benzyl-3-(1-(2,3-dichloro-4-(pyrazin-2-yl)phenyl)ethyl)-1-(1-methylpiperidin-4-yl)urea] | > 30000 | 10 | Medium H Medium M Medium R | – | Medium H Medium M Medium R | – | Medium H Medium M Medium R | –
CC(NC(=O)N(C)C1CCN(C)CC1)c1ccc(C#Cc2cscn2)c(Cl)c1Cl (centres unmarked) [Compound H0751, 3-(1-(2,3-dichloro-4-(thiazol-4-ylethynyl)phenyl)ethyl)-1-methyl-1-(1-methylpiperidin-4-yl)urea] | 62 | 6 | High H High M | no effect | High H High M | – | – | Emax [1]: 1267; Food intake in rat, result in words [3]: no effect; inhibition in vivo at 10 mg/kg ([5]; Mus musculus, ip, 1 h, i.p. 10 mg/kg): 91%
CCN(C(=O)NC(C)c1ccc(-c2cnccn2)c(Cl)c1Cl)C1CCN(C)CC1 (centres unmarked) [Compound H0826, 3-(1-(2,3-dichloro-4-(pyrazin-2-yl)phenyl)ethyl)-1-ethyl-1-(1-methylpiperidin-4-yl)urea] | > 30000 | 5 | High | – | High | Medium | High | –
CN1CC[C@@H](N(C)C(=O)NC(c2ccc(-c3cnccn3)c(Cl)c2Cl)C(F)(F)F)C(C)(C)C1 (stereo partly drawn) [Compound H0865, 3-(1-(2,3-dichloro-4-(pyrazin-2-yl)phenyl)-2,2,2-trifluoroethyl)-1-methyl-1-((R)-1,3,3-trimethylpiperidin-4-yl)urea] | > 30000 | 6 | Low | – | Medium | – | Medium | –
CN1CCC(N(C)C(=O)NC(c2ccc(-c3cnccn3)c(Cl)c2Cl)C(F)(F)F)CC1 (centres unmarked) [Compound H0830, 3-(1-(2,3-dichloro-4-(pyrazin-2-yl)phenyl)-2,2,2-trifluoroethyl)-1-methyl-1-(1-methylpiperidin-4-yl)urea] | > 30000 | 3 | High | – | High | Medium | High | –
C#Cc1ccc(C(C)NC(=O)N(C)C2CCN(C)CC2)c(Cl)c1Cl (single isomer, unassigned) [Compound H0677, 3-(1-(2,3-dichloro-4-ethynylphenyl)ethyl)-1-methyl-1-(1-methylpiperidin-4-yl)urea] | > 30000 | 5 | Medium | NSE | High | – | – | –
CC(NC(=O)N(C)C1CCN(C)CC1)c1ccc(-c2cncnc2)c(Cl)c1Cl (centres unmarked) [Compound H0516, 3-(1-(2,3-dichloro-4-(pyrimidin-5-yl)phenyl)ethyl)-1-methyl-1-(1-methylpiperidin-4-yl)urea] | > 30000 | 41 | High H High M | no effect | High H High M | – | – | inhibition in vivo at 30 mg/kg ([5]; Mus musculus, ip, 1 h, i.p. 30 mg/kg): 88%

From US9546157B2, “Asymmetric piperidinyl-substituted ureas as medicines” (Helsinn Healthcare SA, priority 2014, dated 2017)
